For experiment [1], the system named is RS4;11 leukaemia tumour line. Briefly: In vitro cytotoxicity, Microculture Tetrazolium Assay (MTT). The experiment is classed as cell-based. The settings on record: RS4;11 cells, 48 hours exposure. As to the method:
The cytotoxicity studies were carried out on the RS4;11 leukaemia tumour line.
The cells are distributed onto microplates and exposed to the test compounds for 48 hours. The cell viability is then quantified by a colorimetric assay, the Microculture Tetrazolium Assay (Cancer Res., 1987, 47, 939-942).

The next experiment concerns the target Bcl-2 protein (histag-Bcl-2, UniProtKB P10415) (Homo sapiens (Human), UniProt P10415). Briefly: Inhibition of Bcl-2 by the fluorescence polarisation technique. The conditions noted are these: for IC50: fluorescence polarisation test, method A, or method B where underlined (underlining not visible), read-out: IC50 (nM) Bcl-2 FP. It counts as binding. The source says:
Inhibition of Bcl-2 by the fluorescence polarisation technique
For orientation: Fluorescence polarisation rises when a labelled molecule tumbles more slowly, as on binding a larger partner.

These results are taken from patent US9765056B2, “Indole and pyrrole compounds, a process for their preparation and pharmaceutical compositions containing them” (LES LABORATOIRES SERVIER, priority 2013, dated 2017).

Structures can show the parent of a compound that is named as a salt.

Sequence of Bcl-2 protein (P10415 whole entry): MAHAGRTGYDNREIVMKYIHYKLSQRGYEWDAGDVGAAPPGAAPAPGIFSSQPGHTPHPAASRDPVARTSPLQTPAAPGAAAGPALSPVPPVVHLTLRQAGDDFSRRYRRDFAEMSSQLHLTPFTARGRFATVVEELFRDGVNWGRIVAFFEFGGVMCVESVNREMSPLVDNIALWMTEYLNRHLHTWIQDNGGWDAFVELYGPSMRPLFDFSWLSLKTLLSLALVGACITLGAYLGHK

One may read the IC50 as the concentration needed to halve the response being measured. As to `Cc1cc(C(=O)N(c2ccc(O)cc2)c2ccc(O)cc2)cn1-c1cc(Cl)ccc1C(=O)N1Cc2ccccc2C[C@H]1CN1CCN(C)CC1` [Example 67, 1-(5-Chloro-2-{[(3S)-3-[(4-methylpiperazin-1-yl)methyl]-3,4-dihydroisoquinolin-2(1H)-yl]carbonyl}phenyl)-N,N-bis(4-hydroxyphenyl)-5-methyl-1H-pyrrole-3-carboxamide], the IC50 in experiment [1] (Homo sapiens) came to 101 nM; at Bcl-2 protein, 5.9 nM.

In the case of `CN1CCN(C[C@@H]2Cc3ccccc3CN2C(=O)c2cc3c(cc2-n2cc(C(=O)N(c4ccccc4)c4ccc(O)cc4)c4cc(F)ccc42)OCO3)CC1` [Example 195, 5-Fluoro-N-(4-hydroxyphenyl)-1-{6-[(3S)-3-[(4-methylpiperazin-1-yl)methyl]-1,2,3,4-tetrahydroisoquinoline-2-carbonyl]-2H-1,3-benzodioxol-5-yl}-N-phenyl-1H-indole-3-carboxamide], the 50% inhibitory concentration (IC50) is 507 nM in experiment [1] (Homo sapiens) and 31.1 nM at Bcl-2 protein.

For `Cc1cc(C(=O)N(c2ccc(O)cc2)c2ccc3c(c2)CCN3C)cn1-c1cc2c(cc1C(=O)N1Cc3ccccc3C[C@H]1C)OCO2` [Example 115, N-(4-Hydroxyphenyl)-5-methyl-N-(1-methyl-2,3-dihydro-1H-indol-5-yl)-1-(6-{[(3R)-3-methyl-3,4-dihydroisoquinolin-2(1H)-yl]carbonyl}-1,3-benzodioxol-5-yl)-1H-pyrrole-3-carboxamide hydrochloride], the IC50 in experiment [1] (Homo sapiens) was 272 nM; at Bcl-2 protein, 14.5 nM.

For `Cc1cc(C(=O)N(c2ccc(O)cc2)c2ccc3[nH]ccc3c2)cn1-c1cc2c(cc1C(=O)N1Cc3ccccc3C[C@H]1CN1CCN(C)CC1)OCO2` [Example 87, N-(4-Hydroxyphenyl)-N-(1H-indol-5-yl)-5-methyl-1-(6-{[(3S)-3-[(4-methylpiperazin-1-yl)methyl]-3,4-dihydroisoquinolin-2(1H)-yl]carbonyl}-1,3-benzodioxol-5-yl)-1H-pyrrole-3-carboxamide], the half-maximal inhibitory concentration (IC50) worked out at 138 nM in experiment [1] (Homo sapiens) and 4.4 nM at Bcl-2 protein.

Turning to `Cc1cc(C(=O)N(c2ccc(O)cc2)c2ccc(Cl)cc2)cn1-c1cc(Br)ccc1C(=O)N1Cc2ccccc2C[C@H]1CN1CCN(C)CC1` [Example 62, 1-(5-Bromo-2-{[(3S)-3-[(4-methylpiperazin-1-yl)methyl]-3,4-dihydroisoquinolin-2(1H)-yl]carbonyl}phenyl)-N-(4-chlorophenyl)-N-(4-hydroxyphenyl)-5-methyl-1H-pyrrole-3-carboxamide], the concentration for half-maximal inhibition (IC50) was determined as 205 nM in experiment [1] (Homo sapiens) and 7.5 nM at Bcl-2 protein.

Broadly, the inhibition is how much of the control response was suppressed. Molecule `Cc1ccc(N(C(=O)c2cn(-c3cc4c(cc3C(=O)N3Cc5ccccc5C[C@H]3CN3CCN(C)CC3)OCO4)c3ccccc23)C2CCNCC2)cc1` [Example 98, N-(4-Methylphenyl)-1-(6-{[(3S)-3-[(4-methylpiperazin-1-yl)methyl]-3,4-dihydroisoquinolin-2(1H)-yl]carbonyl}-1,3-benzodioxol-5-yl)-N-(piperidin-4-yl)-1H-indole-3-carboxamide bis-hydrochloride] gave an IC50 in experiment [1] (Homo sapiens) of 1880 nM. For the same molecule, at Bcl-2 protein (read-out: percentage fluorescence polarisation inhibition (Bcl-2 FP)), the inhibition at 10 µM was determined as 45.1%.

In the case of `O=C(c1cn(-c2ccccc2C(=O)N2Cc3ccccc3C[C@H]2CN2CCCCC2)c2ccccc12)N(c1ccccc1)c1ccc(O)cc1` [Example 173, N-(4-Hydroxyphenyl)-N-phenyl-1-{2-[(3S)-3-(piperidin-1-ylmethyl)-1,2,3,4-tetrahydroisoquinoline-2-carbonyl]phenyl}-1H-indole-3-carboxamide], the 50% inhibitory concentration (IC50) in experiment [1] (Homo sapiens) was 2040 nM; at Bcl-2 protein, 168 nM.

For the molecule `COc1cc(-n2cc(C(=O)N(c3ccccc3)c3ccc(F)cc3)c3ccccc32)c(C(=O)N2Cc3ccccc3C[C@H]2CN2CCN(C)CC2)cc1O` [Example 190, N-(4-Fluorophenyl)-1-{4-hydroxy-5-methoxy-2-[(3S)-3-[(4-methylpiperazin-1-yl)methyl]-1,2,3,4-tetrahydroisoquinoline-2-carbonyl]phenyl}-N-phenyl-1H-indole-3-carboxamide dihydrochloride], the concentration for half-maximal inhibition (IC50) worked out at 645 nM in experiment [1] (Homo sapiens) and 13.6 nM at Bcl-2 protein.

With `Cc1cc(C(=O)N(c2ccc(O)cc2)c2ccc(Cl)cc2)cn1-c1cc(Cl)ccc1C(=O)N1Cc2ccccc2C[C@H]1CN1CCN(C)CC1` [Example 65, 1-(5-Chloro-2-{[(3S)-3-[(4-methylpiperazin-1-yl)methyl]-3,4-dihydroisoquinolin-2(1H)-yl]carbonyl}phenyl)-N-(4-chlorophenyl)-N-(4-hydroxyphenyl)-5-methyl-1H-pyrrole-3-carboxamide], the IC50 in experiment [1] (Homo sapiens) turned out to be 130 nM; at Bcl-2 protein, 5.1 nM.

Take `Cc1cc(C(=O)N(c2ccc(O)cc2)c2ccc3c(c2)CN(C)C3)cn1-c1cc2c(cc1C(=O)N1Cc3ccccc3C[C@H]1C)OCO2` [Example 114, N-(4-Hydroxyphenyl)-5-methyl-N-(2-methyl-2,3-dihydro-1H-isoindol-5-yl)-1-(6-{[(3R)-3-methyl-3,4-dihydroisoquinolin-2(1H)-yl]carbonyl}-1,3-benzodioxol-5-yl)-1H-pyrrole-3-carboxamide hydrochloride]: the IC50 in experiment [1] (Homo sapiens) was found to be 726 nM; at Bcl-2 protein, 23.7 nM.

Regarding `Cc1cc(C(=O)N(c2ccc(O)cc2)c2ccc(O)cc2)cn1-c1cc(Br)ccc1C(=O)N1Cc2ccccc2C[C@H]1CN1CCN(C)CC1` [Example 61, 1-(5-Bromo-2-{[(3S)-3-[(4-methylpiperazin-1-yl)methyl]-3,4-dihydroisoquinolin-2(1H)-yl]carbonyl}phenyl)-N,N-bis(4-hydroxyphenyl)-5-methyl-1H-pyrrole-3-carboxamide], the IC50 amounted to 204 nM in experiment [1] (Homo sapiens) and 7.7 nM at Bcl-2 protein.

In the case of `CN1CCN(C[C@@H]2Cc3ccccc3CN2C(=O)c2cc3c(cc2-n2cc(C(=O)N(c4ccc(O)cc4)c4ccc(F)cc4)c4ccccc42)OCO3)CC1` [Example 35, N-(4-Fluorophenyl)-N-(4-hydroxyphenyl)-1-(6-{[(3S)-3-[(4-methylpiperazin-1-yl)methyl]-3,4-dihydroisoquinolin-2(1H)-yl]carbonyl}-1,3-benzodioxol-5-yl)-1H-indole-3-carboxamide], the IC50 was 68.9 nM in experiment [1] (Homo sapiens) and 3.5 nM on Bcl-2 protein.

For the molecule `Cc1cc(C(=O)N(c2ccccc2)c2ccc(O)cc2)cn1-c1cc(C(F)(F)F)ccc1C(=O)N1Cc2ccccc2C[C@H]1CN(C)C` [Example 12, 1-[2-{[(3S)-3-[(Dimethylamino)methyl]-3,4-dihydroisoquinolin-2(1H)-yl]carbonyl}-5-(trifluoromethyl)phenyl]-N-(4-hydroxyphenyl)-5-methyl-N-phenyl-1H-pyrrole-3-carboxamide], the IC50 was found to be 1810 nM in experiment [1] (Homo sapiens) and 120 nM at Bcl-2 protein.

With `Cc1cc(C(=O)N(c2ccc(O)cc2)c2ccc3[nH]ccc3c2)cn1-c1cc(Cl)ccc1C(=O)N1Cc2ccccc2C[C@H]1CN1CCN(C)CC1` [Example 86, 1-(5-Chloro-2-{[(3S)-3-[(4-methylpiperazin-1-yl)methyl]-3,4-dihydroisoquinolin-2(1H)-yl]carbonyl}phenyl)-N-(4-hydroxyphenyl)-N-(1H-indol-5-yl)-5-methyl-1H-pyrrole-3-carboxamide], the IC50 in experiment [1] (Homo sapiens) was determined as 67.7 nM; at Bcl-2 protein, 5.4 nM.

Regarding `O=C(c1cn(-c2cc(Cl)ccc2C(=O)N2Cc3ccccc3C[C@H]2CN2CCCCC2)c2ccccc12)N(c1ccccc1)c1ccc(O)cc1` [Example 171, 1-{5-Chloro-2-[(3S)-3-(piperidin-1-ylmethyl)-1,2,3,4-tetrahydroisoquinoline-2-carbonyl}phenyl]-N-(4-hydroxyphenyl)-N-phenyl-1H-indole-3-carboxamide], the 50% inhibitory concentration (IC50) in experiment [1] (Homo sapiens) was 1050 nM; on Bcl-2 protein, 71.8 nM.

Turning to `CCCCN(CCCC)C(=O)c1nn(-c2ccccc2C(=O)N2Cc3ccccc3C[C@H]2CN)c2ccccc12` [Example 121, 1-{2-[(3S)-3-(Aminomethyl)-1,2,3,4-tetrahydroisoquinoline-2-carbonyl]-phenyl}-N,N-dibutyl-1H-indazole-3-carboxamide], the half-inhibitory concentration (IC50) in experiment [1] (Homo sapiens) is 8770 nM; at Bcl-2 protein, 448 nM.

Turning to `Cc1cc(C(=O)N(c2ccccc2)c2ccc(O)cc2)cn1-c1ccc(OC(F)(F)F)cc1C(=O)N1Cc2ccccc2C[C@H]1CN1CCN(C)CC1` [Example 19, N-(4-Hydroxyphenyl)-5-methyl-1-[2-{[(3S)-3-[(4-methylpiperazin-1-yl)methyl]-3,4-dihydroisoquinolin-2(1H)-yl]carbonyl}-4-(trifluoromethoxy)phenyl]-N-phenyl-1H-pyrrole-3-carboxamide], the results for the 50% inhibitory concentration (IC50) (in experiment [1] (Homo sapiens); on Bcl-2 protein) were 2360 nM and 245 nM, respectively.

As to `CN1CCN(C[C@@H]2Cc3ccccc3CN2C(=O)c2ccc(Cl)cc2-n2cc(C(=O)N(c3ccc(O)cc3)c3ccc(O)cc3)c3ccccc32)CC1` [Example 73, 1-(5-Chloro-2-{[(3S)-3-[(4-methylpiperazin-1-yl)methyl]-3,4-dihydroisoquinolin-2(1H)-yl]carbonyl}phenyl)-N,N-bis(4-hydroxyphenyl)-1H-indole-3-carboxamide], the figures for the half-maximal inhibitory concentration (IC50) (in experiment [1] (Homo sapiens); at Bcl-2 protein) were 51.4 nM and 3.9 nM, respectively.

As for `CC(=O)Oc1ccc(N(C(=O)c2cn(-c3cc4c(cc3C(=O)N3Cc5ccccc5C[C@H]3CN3CCN(C)CC3)OCO4)c3ccccc23)c2ccc(C)cc2)cc1` [Example 60, 4-[(4-Methylphenyl){[1-(6-{[(3S)-3-[(4-methylpiperazin-1-yl)methyl]-3,4-dihydroisoquinolin-2(1H)-yl]carbonyl}-1,3-benzodioxol-5-yl)-1H-indol-3-yl]-carbonyl}amino]phenyl acetate], the half-maximal inhibitory concentration (IC50) in experiment [1] was 89.5 nM; at Bcl-2 protein, 206 nM.

Turning to `NC[C@@H]1Cc2ccccc2CN1C(=O)c1cc2c(cc1-n1cc(C(=O)N(c3ccccc3)c3ccc(O)cc3)c3ccccc31)OCO2` [Example 153, 1-{6-[(3S)-3-(Aminomethyl)-1,2,3,4-tetrahydroisoquinoline-2-carbonyl]-2H-1,3-benzodioxol-5-yl}-N-(4-hydroxyphenyl)-N-phenyl-1H-indole-3-carboxamide], the IC50 was 237 nM in experiment [1] (Homo sapiens) and 286 nM on Bcl-2 protein.
